The source of these data is PubChem BioAssay (NCI).

Several values for one entry are separate records, joined by “and”; a condition that tells them apart may be missing. Identical values can stand only once.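 Results reflect a 48-hour exposure of cells in 96-well plates to compound at five concentrations. Abbreviation: GI50, concentration required for 50% inhibition of growth. TGI is the concentration that stops growth completely.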

Among the test systems are U251 CNS; SNB-19 CNS; OVCAR-5 ovarian; MDA-MB-435; SF-295 CNS; PC-3 prostate; 786-0 renal; T-47D breast; SF-268 CNS; UACC-62 melanoma.
Holding throughout (experiment): NCI tumour cell line growth inhibition, 48 h

With `O=C(CCCSc1nc(-c2ccccc2)cc(-c2ccccc2)n1)NO`, the GI50 in the assay on U251 CNS was 1.24 µM; with SNB-19 CNS, 2.67 µM; in the assay on OVCAR-5 ovarian it was 1.37 µM; in the assay with MDA-MB-435, 2.05 µM; in the assay with SF-295 CNS, 2.17 µM; in the assay with PC-3 prostate it was 1.72 µM. The GI50 in the assay with 786-0 renal was 0.585 µM; in the assay with T-47D breast, 1.76 µM; in the assay with SF-268 CNS, 2.03 µM; with UACC-62 melanoma it was 1.32 µM. Besides, the TGI in the assay with U251 CNS was 3.2 µM; with SNB-19 CNS, 13.8 µM; in the assay on OVCAR-5 ovarian, 5.64 µM; in the assay on MDA-MB-435, 10.1 µM; in the assay with SF-295 CNS, 6.98 µM; with PC-3 prostate, 13.6 µM. The TGI in the assay on 786-0 renal stood at 4.34 µM; in the assay on T-47D breast, 22 µM; in the assay on SF-268 CNS, 5.76 µM; in the assay on UACC-62 melanoma it was 3.21 µM.
For the compound `C=C1C(=O)O[C@H]2[C@H]1CC/C(COC(=O)NCc1ccc(Cn3c(=O)sn(-c4ccc(OC)cc4)c3=O)cc1)=C\CC[C@@]1(C)O[C@@H]21`, the GI50 in the assay on U251 CNS is 4.11 µM; in the assay with SNB-19 CNS, 11.7 µM; in the assay on OVCAR-5 ovarian it was 2.06 µM; in the assay on MDA-MB-435 it was 1.83 µM; with SF-295 CNS, 15 µM; in the assay on PC-3 prostate, 2.19 µM. Moreover, the GI50 with 786-0 renal was 2.05 µM; in the assay on T-47D breast, 1.86 µM; in the assay on SF-268 CNS, 3.14 µM; in the assay with UACC-62 melanoma, 1.86 µM. The TGI turned out to be 13.9 µM in the assay with U251 CNS; 24.6 µM in the assay with SNB-19 CNS; 4.81 µM in the assay on OVCAR-5 ovarian; 3.84 µM with MDA-MB-435; 28.9 µM in the assay on SF-295 CNS; 5.27 µM with PC-3 prostate. The TGI with 786-0 renal is 4.51 µM; in the assay on T-47D breast, 4.53 µM; with SF-268 CNS, 9.86 µM; in the assay with UACC-62 melanoma it was 3.84 µM.
On to `COc1ccc2nc(NC(=O)CSc3nnc4n3S(=O)(=O)c3ccccc3N4c3ccccc3)sc2c1`, for which the GI50 with U251 CNS is 52.4 µM; in the assay on SNB-19 CNS it was greater than 100 µM; in the assay with OVCAR-5 ovarian it was greater than 100 µM; in the assay with MDA-MB-435, greater than 100 µM; in the assay on SF-295 CNS, greater than 100 µM; with PC-3 prostate, greater than 100 µM. The GI50 with 786-0 renal is 12.4 µM; in the assay with T-47D breast, greater than 100 µM; in the assay on SF-268 CNS it was greater than 100 µM; in the assay with UACC-62 melanoma it was 48.5 µM. Also, the TGI with U251 CNS, with SNB-19 CNS, in the assay on OVCAR-5 ovarian, in the assay with MDA-MB-435, in the assay with SF-295 CNS and with PC-3 prostate was greater than 100 µM each time. Also, the TGI in the assay on 786-0 renal was 93.1 µM; in the assay with T-47D breast, greater than 100 µM; with SF-268 CNS, greater than 100 µM; in the assay on UACC-62 melanoma, greater than 100 µM.
On to `O=C1NC(=NC(CO)Cc2ccccc2)S/C1=C\c1ccc2ncccc2c1` (stereo not given), for which the GI50 was > 20.9 µM and 2.29 µM with U251 CNS; > 25 µM and 4.34 µM with SNB-19 CNS; > 25 µM and 6.83 µM in the assay on OVCAR-5 ovarian; 6.21 µM and 2.54 µM with MDA-MB-435; > 25 µM and 5.5 µM in the assay with SF-295 CNS; > 25 µM and 3.9 µM in the assay with PC-3 prostate. In addition, the GI50 is > 25 µM and 6.96 µM with 786-0 renal; 21.1 µM and 5.26 µM with T-47D breast; 20 µM and 4.36 µM in the assay on SF-268 CNS; 14.6 µM and 5.27 µM in the assay on UACC-62 melanoma. Further, the TGI in the assay with U251 CNS, with SNB-19 CNS, with OVCAR-5 ovarian, with MDA-MB-435, in the assay on SF-295 CNS and with PC-3 prostate was greater than 25 µM throughout. Besides, the TGI in the assay on 786-0 renal, with T-47D breast, with SF-268 CNS and with UACC-62 melanoma was greater than 25 µM throughout.
Consider `CCn1c(-c2nonc2N)nc2c(C#CC(C)(C)O)nc(OC[C@@H](N)c3ccccc3)cc21`, for which the GI50 was 3.98 µM in the assay with U251 CNS; 6 µM with SNB-19 CNS; 7.92 µM in the assay on OVCAR-5 ovarian; 5.22 µM in the assay on MDA-MB-435; 4.59 µM with SF-295 CNS; 7.73 µM with PC-3 prostate. In addition, the GI50 in the assay on 786-0 renal is 2.98 µM; in the assay on T-47D breast it was 3.8 µM; in the assay with SF-268 CNS, 5.04 µM; in the assay with UACC-62 melanoma it was 4.89 µM. Also, the TGI was determined as 7.63 µM in the assay on U251 CNS; 11.6 µM with SNB-19 CNS; 15.1 µM in the assay on OVCAR-5 ovarian; 9.81 µM with MDA-MB-435; 9.63 µM with SF-295 CNS; 25 µM with PC-3 prostate. In addition, the TGI with 786-0 renal amounted to 6.35 µM; in the assay with T-47D breast, 8.24 µM; in the assay on SF-268 CNS it was 9.22 µM; in the assay on UACC-62 melanoma it was 8.79 µM.
Consider `CN(C)c1cc(NN=C(c2ccc(O)cc2)c2ccc(O)cc2)c([N+](=O)[O-])cc1[N+](=O)[O-]`, for which the GI50 in the assay with U251 CNS is 5.61 µM; in the assay on SNB-19 CNS it was 9.4 µM; in the assay on OVCAR-5 ovarian it was 17.2 µM; in the assay with MDA-MB-435, 3.02 µM; in the assay on SF-295 CNS, 1.86 µM; in the assay with PC-3 prostate, 4.85 µM. Also, the GI50 is 10.9 µM with 786-0 renal, 3.34 µM in the assay with T-47D breast, 3.88 µM with SF-268 CNS and 3.41 µM in the assay with UACC-62 melanoma. Besides, the TGI with U251 CNS stood at 18.3 µM; in the assay on SNB-19 CNS, 22.2 µM; in the assay with OVCAR-5 ovarian, 32.4 µM; in the assay on MDA-MB-435 it was 14.3 µM; with SF-295 CNS, 5.22 µM; in the assay on PC-3 prostate it was 32.2 µM. Also, the TGI in the assay with 786-0 renal was determined as 25.1 µM; in the assay with T-47D breast, 17.2 µM; in the assay with SF-268 CNS, 15.9 µM; in the assay on UACC-62 melanoma, 14.4 µM.
For the compound `CCN(Cc1ccc(F)cc1)c1cc(Cl)c(CO)c(Cl)c1`, the GI50 was 10.5 µM with U251 CNS; 12.5 µM in the assay on SNB-19 CNS; 4.22 µM in the assay with OVCAR-5 ovarian; 17.9 µM in the assay with MDA-MB-435; 10.9 µM in the assay with SF-295 CNS; 11.3 µM with PC-3 prostate. Further, the GI50 in the assay on 786-0 renal is 16 µM; with T-47D breast it was 7.47 µM; in the assay with SF-268 CNS, 13.6 µM; with UACC-62 melanoma it was 4.98 µM. In addition, the TGI came to 22.6 µM in the assay on U251 CNS; 26 µM with SNB-19 CNS; 17.7 µM in the assay with OVCAR-5 ovarian; 37 µM with MDA-MB-435; 25.6 µM with SF-295 CNS; 24.7 µM with PC-3 prostate. Further, the TGI with 786-0 renal amounted to 32.5 µM; in the assay with T-47D breast, 26.5 µM; in the assay with SF-268 CNS, 27.7 µM; with UACC-62 melanoma, 17.9 µM.
